In patent US10287255B2, “Compounds as histone deacetylase 6 inhibitors and pharmaceutical compositions comprising the same” (CHONG KUN DANG PHARMACEUTICAL CORP., priority 2014, dated 2019):

Assays:
human recombinant HDAC1 = molecular target: T1, human recombinant HDAC1 (Homo sapiens, UniProt Q13547); assay: HDAC1 enzyme activity inhibition assay (in vitro, fluorimetric); type: biochemical; conditions: human recombinant HDAC1, fluorimetric kit, 30° C. 60 minutes
T1 construct: purchased Enzo Life Science BML-SE456
T1 sequence (Q13547 whole entry): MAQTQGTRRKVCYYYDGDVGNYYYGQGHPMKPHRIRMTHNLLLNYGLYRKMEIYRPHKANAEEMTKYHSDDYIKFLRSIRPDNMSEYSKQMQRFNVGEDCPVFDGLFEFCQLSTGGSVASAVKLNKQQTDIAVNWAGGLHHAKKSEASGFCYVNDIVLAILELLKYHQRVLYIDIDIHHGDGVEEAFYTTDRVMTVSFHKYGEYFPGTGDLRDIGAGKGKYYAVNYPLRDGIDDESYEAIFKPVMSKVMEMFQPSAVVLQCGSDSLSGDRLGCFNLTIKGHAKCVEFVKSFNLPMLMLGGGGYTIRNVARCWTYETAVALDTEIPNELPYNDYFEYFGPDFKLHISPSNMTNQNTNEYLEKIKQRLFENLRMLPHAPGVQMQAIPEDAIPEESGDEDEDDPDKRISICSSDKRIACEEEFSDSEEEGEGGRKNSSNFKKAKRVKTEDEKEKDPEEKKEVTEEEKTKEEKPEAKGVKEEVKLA
Method in brief: (§1)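 IC50 values derive from fluorescence (Ex 360, Em 460) after developer treatment (30 min) of reactions of recombinant human HDAC1 or HDAC6 with 10 μM Fluor de Lys-SIRT1 substrate (60 min, 30 °C). Compounds were serially diluted 5-fold; 0.3 μg enzyme was used for HDAC1, with HDAC6 tested identically.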

human recombinant HDAC6 = molecular target: T2, human recombinant HDAC6 (Homo sapiens, UniProt Q9UBN7); assay: HDAC6 enzyme activity inhibition assay (in vitro, fluorimetric); type: biochemical; conditions: for HDAC6 selectivity (fold): HDAC6 selectivity over HDAC1; for IC50: human recombinant HDAC6, fluorimetric kit, same protocol as HDAC1
T2 construct: purchased Calbiochem 382180
T2 sequence (Q9UBN7 1-1215): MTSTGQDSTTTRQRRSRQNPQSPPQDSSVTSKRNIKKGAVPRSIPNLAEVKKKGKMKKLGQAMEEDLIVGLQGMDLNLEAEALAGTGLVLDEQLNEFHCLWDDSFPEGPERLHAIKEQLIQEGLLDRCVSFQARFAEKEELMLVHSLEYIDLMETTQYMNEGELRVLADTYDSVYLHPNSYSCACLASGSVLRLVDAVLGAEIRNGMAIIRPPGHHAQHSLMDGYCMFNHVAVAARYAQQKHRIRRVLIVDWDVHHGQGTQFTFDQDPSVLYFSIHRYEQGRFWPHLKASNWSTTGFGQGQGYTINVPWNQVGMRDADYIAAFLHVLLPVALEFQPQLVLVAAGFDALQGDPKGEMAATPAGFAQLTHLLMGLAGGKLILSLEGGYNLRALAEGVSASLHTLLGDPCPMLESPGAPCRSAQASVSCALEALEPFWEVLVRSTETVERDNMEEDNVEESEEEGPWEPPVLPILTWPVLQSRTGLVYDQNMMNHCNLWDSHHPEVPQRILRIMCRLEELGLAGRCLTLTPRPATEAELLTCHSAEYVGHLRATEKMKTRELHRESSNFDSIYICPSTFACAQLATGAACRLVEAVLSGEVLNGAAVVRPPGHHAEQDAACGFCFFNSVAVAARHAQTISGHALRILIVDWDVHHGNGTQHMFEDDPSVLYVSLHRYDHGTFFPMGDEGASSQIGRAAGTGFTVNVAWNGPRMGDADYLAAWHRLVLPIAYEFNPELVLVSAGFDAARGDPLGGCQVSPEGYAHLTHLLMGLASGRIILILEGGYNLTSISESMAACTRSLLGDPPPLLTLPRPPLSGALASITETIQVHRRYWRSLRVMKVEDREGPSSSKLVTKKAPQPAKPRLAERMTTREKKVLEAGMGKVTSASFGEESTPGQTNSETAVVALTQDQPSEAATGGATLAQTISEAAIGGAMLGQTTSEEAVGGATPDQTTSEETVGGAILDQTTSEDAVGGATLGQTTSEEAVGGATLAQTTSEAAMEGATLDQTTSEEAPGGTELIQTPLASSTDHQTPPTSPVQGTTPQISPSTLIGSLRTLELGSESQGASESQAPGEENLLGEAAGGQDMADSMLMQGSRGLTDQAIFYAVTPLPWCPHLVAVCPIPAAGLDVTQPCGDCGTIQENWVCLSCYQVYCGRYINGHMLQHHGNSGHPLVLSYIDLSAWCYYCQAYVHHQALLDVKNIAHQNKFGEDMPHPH
Method in brief: as §1

| SMILES | IC50 (human recombinant HDAC1) [nM] | HDAC6 selectivity (fold) (human recombinant HDAC6) | IC50 (human recombinant HDAC6) [nM] |
| --- | --- | --- | --- |
| C[C@@H]1CN(Cc2ccc(C(=O)NO)cc2)C[C@H](C)N1C(=O)c1ccccc1-c1ccoc1 [Compound 284, 4-(((3R,5S)-4-(2-(furan-3-yl)benzoyl)-3,5-dimethylpiperazin-1-yl)methyl)-N-hydroxybenzamide] | 5700 | 84 | 68 |
| C[C@@H]1CN(Cc2ccc(C(=O)NO)cc2)C[C@H](C)N1C(=O)c1ccccc1-c1ccncc1 [Compound 285, 4-(((3R,5S)-3,5-dimethyl-4-(2-(pyridin-4-yl)benzoyl)piperazin-1-yl)methyl)-N-hydroxybenzamide] | 7000 | 75 | 93 |
| CCC(=O)N1[C@H](C)CN(Cc2ccc(C(=O)NO)cc2)C[C@@H]1C [Compound 293, 4-(((3R,5S)-3,5-dimethyl-4-propionylpiperazin-1-yl)methyl)-N-hydroxybenzamide] | 5800 | 44 | 131 |
| CC(C)C(=O)N1[C@H](C)CN(Cc2ccc(C(=O)NO)cc2)C[C@@H]1C [Compound 296, N-hydroxy-4-(((3R,5S)-4-isobutyryl-3,5-dimethylpiperazin-1-yl)methyl)benzamide] | 6900 | 34 | 204 |
| CC(C)CC(=O)N1[C@H](C)CN(Cc2ccc(C(=O)NO)cc2)C[C@@H]1C [Compound 297, 4-(((3R,5S)-3,5-dimethyl-4-(3-methylbutanoyl)piperazin-1-yl)methyl)-N-hydroxybenzamide] | 5600 | 62 | 90 |
| C[C@@H]1CN(Cc2cccc(C(F)(F)F)c2)C[C@H](C)N1Cc1ccc(C(=O)NO)cc1 [Compound 298, 4-(((2S,6R)-2,6-dimethyl-4-(3-(trifluoromethyl)benzyl)piperazin-1-yl)methyl)-N-hydroxybenzamide] | 5500 | 15 | 369 |
| C[C@@H]1CN(Cc2ccc(N(C)C)cc2)C[C@H](C)N1Cc1ccc(C(=O)NO)cc1 [Compound 299, 4-(((2S,6R)-4-(4-(dimethylamino)benzyl)-2,6-dimethylpiperazin-1-yl)methyl)-N-hydroxybenzamide] | 1200 | 5 | 243 |
| C[C@@H]1CN(Cc2ccc(S(C)(=O)=O)cc2)C[C@H](C)N1Cc1ccc(C(=O)NO)cc1 [Compound 300, 4-(((2S,6R)-2,6-dimethyl-4-(4-(methylsulfonyl)benzyl)piperazin-1-yl)methyl)-N-hydroxybenzamide] | 3700 | 7 | 530 |
| C[C@@H]1CN(Cc2ccc(-c3cccs3)cc2)C[C@H](C)N1Cc1ccc(C(=O)NO)cc1 [Compound 302, 4-(((2S,6R)-2,6-dimethyl-4-(4-(thiophen-2-yl)benzyl)piperazin-1-yl)methyl)-N-hydroxybenzamide] | 3600 | 3 | 1130 |
| C[C@@H]1CN(Cc2ccc(-c3ccco3)cc2)C[C@H](C)N1Cc1ccc(C(=O)NO)cc1 [Compound 303, 4-(((2S,6R)-4-(4-(furan-2-yl)benzyl)-2,6-dimethylpiperazin-1-yl)methyl)-N-hydroxybenzamide] | 2900 | 3 | 1110 |
| Cc1nccn1-c1ccccc1CN1C[C@@H](C)N(Cc2ccc(C(=O)NO)cc2)[C@@H](C)C1 [Compound 305, 4-(((2S,6R)-2,6-dimethyl-4-(2-(2-methyl-1H-imidazol-1-yl)benzyl)piperazin-1-yl)methyl)-N-hydroxybenzamide] | 5600 | 174 | 32 |
| C[C@@H]1CN(Cc2ccc(/C=C/C(=O)NO)cc2)C[C@H](C)N1C(=O)c1ccco1 [Compound 322, (E)-3-(4-(((3R,5S)-4-(furan-2-carbonyl)-3,5-dimethylpiperazin-1-yl)methyl)phenyl)-N-hydroxyacrylamide] | 1100 | 6 | 175 |

Now from value to compound:

| IC50 (human recombinant HDAC1) [nM] | HDAC6 selectivity (fold) (human recombinant HDAC6) | IC50 (human recombinant HDAC6) [nM] | SMILES |
| --- | --- | --- | --- |
| 13100 | 81 | 161 | C[C@@H]1CN(Cc2ccc(C(=O)NO)cc2)C[C@H](C)N1C(=O)c1ccccc1-c1cccnc1 [Compound 286, 4-(((3R,5S)-3,5-dimethyl-4-(2-(pyridin-3-yl)benzoyl)piperazin-1-yl)methyl)-N-hydroxybenzamide] |
| 10700 | 33 | 326 | C[C@@H]1CN(Cc2ccc(C(=O)NO)cc2)C[C@H](C)N1C(=O)c1ccccc1C1=CCC(C)(C)CC1 [Compound 288, 4-(((3R,5S)-4-(4′,4′-dimethyl-2′,3′,4′,5′-tetrahydro-[1,1′-biphenyl]-2-carbonyl)-3,5-dimethylpiperazin-1-yl)methyl)-N-hydroxybenzamide] |
| 3800 | 48 | 79 | Cc1ccc(C(=O)N2[C@H](C)CN(Cc3ccc(C(=O)NO)cc3)C[C@@H]2C)cc1 [Compound 290, 4-(((3R,5S)-3,5-dimethyl-4-(4-methylbenzoyl)piperazin-1-yl)methyl)-N-hydroxybenzamide] |
| 1300 | 24 | 55 | COc1ccc(C(=O)N2[C@H](C)CN(Cc3ccc(C(=O)NO)cc3)C[C@@H]2C)cc1 [Compound 291, N-hydroxy-4-(((3R,5S)-4-(4-methoxybenzoyl)-3,5-dimethylpiperazin-1-yl)methyl)benzamide] |
| 5600 | 76 | 74 | C[C@@H]1CN(Cc2ccc(C(=O)NO)cc2)C[C@H](C)N1C(=O)C(C)(C)C [Compound 292, 4-(((3R,5S)-3,5-dimethyl-4-pivaloylpiperazin-1-yl)methyl)-N-hydroxybenzamide] |
| 8200 | 37 | 220 | CCCC(=O)N1[C@H](C)CN(Cc2ccc(C(=O)NO)cc2)C[C@@H]1C [Compound 294, 4-(((3R,5S)-4-butyryl-3,5-dimethylpiperazin-1-yl)methyl)-N-hydroxybenzamide] |
| 5700 | 72 | 79 | C[C@@H]1CN(Cc2ccc(C(=O)NO)cc2)C[C@H](C)N1C(=O)C1CC1 [Compound 295, 4-(((3R,5S)-4-(cyclopropanecarbonyl)-3,5-dimethylpiperazin-1-yl)methyl)-N-hydroxybenzamide] |
| 2800 | 11 | 253 | C[C@@H]1CN(Cc2ccc(-n3ccnc3)cc2)C[C@H](C)N1Cc1ccc(C(=O)NO)cc1 [Compound 301, 4-(((2S,6R)-4-(4-(1H-imidazol-1-yl)benzyl)-2,6-dimethylpiperazin-1-yl)methyl)-N-hydroxybenzamide] |
| 2300 | 8 | 280 | C[C@@H]1CN(Cc2ccc(-n3cnnc3)cc2)C[C@H](C)N1Cc1ccc(C(=O)NO)cc1 [Compound 304, 4-(((2S,6R)-4-(4-(4H-1,2,4-triazol-4-yl)benzyl)-2,6-dimethylpiperazin-1-yl)methyl)-N-hydroxybenzamide] |
| 1600 | 21 | 73 | C[C@@H]1CN(Cc2ccc(C(=O)NO)cc2)C[C@H](C)N1Cc1ccc(-c2ccoc2)cc1 [Compound 309, 4-(((3R,5S)-4-(4-(furan-3-yl)benzyl)-3,5-dimethylpiperazin-1-yl)methyl)-N-hydroxybenzamide] |
| 1100 | 8 | 125 | C[C@@H]1CN(Cc2ccc(/C=C/C(=O)NO)cc2)C[C@H](C)N1C(=O)Nc1cccc(-n2cccc2)c1 [Compound 321, (2S,6R)-N-(3-(1H-pyrrol-1-yl)phenyl)-4-(4-((E)-3-(hydroxyamino)-3-oxoprop-1-en-1-yl)benzyl)-2,6-dimethylpiperazine-1-carboxamide] |
